Measurements taken from patent US11191754B2, “Inhibitors of nucleotidyl transferases and uses in herpes and hepatitis viral infections therefor” (Saint Louis University, priority 2015, dated 2021).
“And” between values parts separate entries of the source, which are not always exact repeats. Equal values may be shown once.

What was measured:
HSV-1 = assay: Anti-HSV-1 replication assay (virus yield by plaque assay on Vero cells); assay type: cell-based, herpes simplex virus 1 (HSV-1); settings: for HSV-1 inhibition category: semi-quantitative replication inhibition assay
Method: (§1) Vero cells were maintained in Dulbecco's modified Eagle's medium (DMEM) containing 3% newborn calf serum, 3% bovine growth serum, 2 mM L-glutamine and 100 IU/mL penicillin and 0.1 mg/mL streptomycin (P/S). HSV-1 #6 and HSV-2 #1 are de-identified clinical isolates from the Saint Louis University Hospital. Stocks were prepared after a single passage in cell culture and were titered by standard plaque assay (Knipe and Spang, 1982). Wild-type HSV-2 used in FIG. 3 was laboratory strain 333. […] Virus stocks were grown and titered on Vero cells (Morrison and Knipe, 1996).
(§2) Compounds to be screened were diluted in PBS supplemented to contain 2% newborn calf serum and 1% glutamine, and added in 100 μL volume to confluent cell monolayers in 24-well cluster plates. Immediately thereafter HSV-1 and HSV-2, diluted in the supplemented PBS medium, were added to the wells in 50 μl volume such that the final concentration of compound was 50 μM, 5 μM and 1 μM and the multiplicity of infection was 0.1. The plates were incubated at 37° C. for 1 hour and then virus-containing inoculum was removed and the wells were washed once in PBS. Compound, diluted to 50 μM, 5 μM and 1 μM in DMEM supplemented to contain 2% newborn calf serum and 1% each penicillin/streptomycin, was added at 0.5 mL/well. Plates were incubated at 37° C. an additional 23 hours, and then the plates were visually inspected through a phase contrast microscope for cytopathic effect, and for toxic effect. The entire contents of each well were collected by scraping. Samples were frozen at −80° C., and then subsequently thawed, sonicated, and infectious virus titer was determined by standard plaque assay on Vero cell monolayers. Because the compounds were dissolved at 10 mM in 100% DMSO, equivalent dilutions of DMSO were added to additional wells as a control for effects of the diluent. Each experiment was repeated once. EC50 values were determined as above except that serial dilutions of the compound to be tested were prepared starting at 50 μM. The inhibitory values were calculated by non-linear curve-fitting in GraphPad Prism.

human RNaseH1 = target: T1, human RNaseH1 (Homo sapiens, UniProt O60930); assay: Human RNaseH1 oligonucleotide-directed RNA cleavage assay; assay type: biochemical; settings: recombinant human RNaseH1
T1 construct: made in house; host or cells: E. coli
T1 sequence (O60930 1-286): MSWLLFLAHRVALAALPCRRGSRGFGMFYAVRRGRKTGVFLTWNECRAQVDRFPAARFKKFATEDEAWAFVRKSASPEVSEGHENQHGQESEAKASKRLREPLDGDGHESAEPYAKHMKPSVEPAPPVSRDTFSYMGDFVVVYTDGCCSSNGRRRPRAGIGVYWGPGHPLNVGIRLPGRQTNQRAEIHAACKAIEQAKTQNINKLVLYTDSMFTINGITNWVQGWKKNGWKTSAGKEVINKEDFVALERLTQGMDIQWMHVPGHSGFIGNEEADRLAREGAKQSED
Method: Recombinant HBV RNaseH and human RNaseH1 were expressed in E. coli and partially purified by nickel-affinity chromatography as previously described in Tavis, et al. (2013). The enriched extracts were dialyzed into 50 mM HEPES pH 7.3, 300 mM NaCl, 20% glycerol, and 5 mM DTT and stored in liquid nitrogen.
RNaseH activity was measured using an oligonucleotide-directed RNA cleavage assay as previously described in Hu, et al., Tavis, et al., and Cai, et al. (2013; 2013; and 2014, respectfully). Briefly, 6 μL protein extract was mixed on ice with an internally ^32P-labeled 264 nt RNA derived from the Duck Hepatitis B Virus genome (DRF+ RNA) plus 3 μg oligonucleotide D2507- or its inverse-complement oligonucleotide D2526+ as a negative control. This mixture was incubated with test compounds in 50 mM Tris pH 8.0, 190 mM NaCl, 5 mM MgCl2, 3.5 mM DTT, 0.05% NP40, 6% glycerol, and 1% DMSO at 42° C. for 90 minutes. Cleavage products were resolved by denaturing polyacrylamide gel electrophoresis, detected by autoradiography, and quantified using ImageJ. Non-specific background values were determined from the incorrect oligonucleotide negative control lane and subtracted from all experimental values. IC50 values were then calculated with GraphPad Prism using three-parameter log(inhibitor) vs. response non-linear curve fitting with the curve minimum set to zero to reflect background subtraction.

[1] = tested on: TK-deficient mutant of HSV-2 strain 333, ΔTK-; assay: Replication of TK-deficient HSV-2 mutant in Vero cells; assay type: cell-based, herpes simplex virus 2 (HSV-2); settings: 5 μM, 24 h (FIG. 3)
Method: Vero cells were maintained in Dulbecco's modified Eagle's medium (DMEM) containing 3% newborn calf serum, 3% bovine growth serum, 2 mM L-glutamine and 100 IU/mL penicillin and 0.1 mg/mL streptomycin (P/S). HSV-1 #6 and HSV-2 #1 are de-identified clinical isolates from the Saint Louis University Hospital. Stocks were prepared after a single passage in cell culture and were titered by standard plaque assay (Knipe and Spang, 1982). Wild-type HSV-2 used in FIG. 3 was laboratory strain 333. The TK-deficient mutant of HSV-2 strain 333, ΔTK-, contains a 180-bp KpnI-KpnI deletion in the UL23 open reading frame that abrogates TK activity (McDermott, et al, 1984). ΔTK—was the generous gift of Jim Smiley. Virus stocks were grown and titered on Vero cells (Morrison and Knipe, 1996).
ACV is a nucleoside analog prodrug that must be phosphorylated by the viral thymidine kinase (TK) for it to become a substrate for the viral DNA polymerase (Elion, et al., 1977). HSV TK-deficient mutants are therefore insensitive to ACV. […] Vero cells were infected with a laboratory strain of HSV-2 and an engineered TK-deficient mutant of the same strain. […] ACV 5 μM inhibited wild-type HSV-2 replication 100-fold, but it had little effect on the TK-mutant (FIG. 3).

HSV-2 = assay: Anti-HSV-2 replication assay (virus yield by plaque assay on Vero cells); assay type: cell-based, herpes simplex virus 2 (HSV-2); settings: for HSV-2 inhibition category: semi-quantitative replication inhibition assay
Method: as §1, §2

[2] = 1 μM, Vero cells, moi 0.1, 24 h, relative to DMSO control
[3] = 5 μM, Vero cells, moi 0.1, 24 h, relative to DMSO control
[4] = 50 μM, Vero cells, moi 0.1, 24 h, relative to DMSO control

Cc1cc(CC(C)CC(C)(C)C)n(O)c(=O)c1 (stereo not drawn) [#191, Piroctone olamine]
HSV-1 inhibition category (HSV-1; 1 μM): intermediate (1 to 3 log10 suppression, which equals 10- to 1,000-fold reduction) | HSV-1 Log10 suppression 1 μM (HSV-1; [2]): 2.71 log10 | HSV-1 replication inhibition, fold (HSV-1; 5 μM): 4,074 fold | HSV-1 inhibition category (HSV-1; 5 μM): strong (3 to 6 log10 suppression, or 1,000- to 1,000,000-fold reduction) | HSV-1 Log10 suppression 5 μM (HSV-1; [3]): 3.61 log10 and 3.53 log10 | HSV-1 inhibition category (HSV-1; 50 μM): strong (3 to 6 log10 suppression, or 1,000- to 1,000,000-fold reduction) | HSV-1 Log10 suppression 50 μM (HSV-1; [4]): 3.85 log10 | Anti-human RNase H1 (human RNaseH1): did not inhibit | inhibition of TK-mutant HSV-2 [1]: efficiently inhibited | HSV-2 inhibition category (HSV-2; 1 μM): intermediate (1 to 3 log10 suppression, which equals 10- to 1,000-fold reduction) | HSV-2 Log10 suppression 1 μM (HSV-2; [2]): 1.70 log10 | HSV-2 replication inhibition, fold (HSV-2; 5 μM): 39,000 fold | HSV-2 inhibition category (HSV-2; 5 μM): strong (3 to 6 log10 suppression, or 1,000- to 1,000,000-fold reduction) | suppression of replication of three primary clinical isolates of HSV-2 (HSV-2; 5 μM, Vero cells, moi 0.1, 24 h (FIG. 2)): > 4.7 log10 | HSV-2 Log10 suppression 5 μM (HSV-2; [3]): 4.59 log10 and 4.53 log10 | inhibition of wild-type HSV-2 (HSV-2; 5 μM, laboratory strain 333, Vero cells, 24 h (FIG. 3)): efficiently inhibited | HSV-2 inhibition category (HSV-2; 50 μM): strong (3 to 6 log10 suppression, or 1,000- to 1,000,000-fold reduction) | HSV-2 Log10 suppression 50 μM (HSV-2; [4]): 4.25 log10
